Assay results from patent US20060004185A1, “Peptide antibiotics and peptide intermediates for their prepartion” (priority 2004, published 2006).

Columns and labels:
[1] = cited from earlier work
[2] = system: Escherichia coli, ATCC #26; test: MIC, serial twofold broth dilution in Mueller Hinton broth; format: cell-based; conditions: Escherichia coli ATCC #26, Mueller Hinton broth
[3] = system: Staphylococcus aureus Smith; test: as above; format: cell-based

Substance | overall incidence of neurotoxicity ([1]; human, in vivo) [%] | E. coli MIC [2] [micrograms per milliliter] | Staph MIC [3] [µg/mL] | renal toxicity ([1]; patients, recommended dosing)
colistin | 7.3 | – | – | –
Polymyxin B [reference compound] | – | 0.6 | > 10 | Some renal toxicity was observed
